Laboratory results as given in PubChem BioAssay AID1963985 (Molecular Pharmacology Branch, DTP, NCI, 2024).

Tested on: 252836-082-R-J2-PDC tumor spheroids, viability
Assay: Anticancer human tumor 252836-082-R-J2-PDC patient-derived head and neck squamous cell carcinoma cell line growth inhibition [PI3K]
Settings: spheroids with HUVEC and MSC; for IC50: curve of first compound; for viability, T/C: stronger effect = lower value
Method in brief: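 Multi-cell spheroids combine tumor cells with HUVEC and human MSCs, treated with targeted agents alone or with inavolisib, alpelisib, duvelisib or copanlisib. Concentrations fall in half-log steps from at or near clinical Cmax, or from 10 microM where Cmax is unknown; viability read-out.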

[1] = second compound 0.0316 µM, first compound 0.00316 µM
[2] = second compound 0.0316 µM, first compound 0.01 µM
[3] = second compound 0.0316 µM, first compound 0.0316 µM
[4] = second compound 0.0316 µM, first compound 0.1 µM
[5] = second compound 0.1 µM, first compound 0.00316 µM
[6] = second compound 0.1 µM, first compound 0.01 µM
[7] = second compound 0.1 µM, first compound 0.0316 µM
[8] = second compound 0.1 µM, first compound 0.1 µM
[9] = second compound 0.316 µM, first compound 0.00316 µM
[10] = second compound 0.316 µM, first compound 0.01 µM
[11] = second compound 0.316 µM, first compound 0.0316 µM
[12] = second compound 0.316 µM, first compound 0.1 µM
[13] = second compound 1 µM, first compound 0.00316 µM
[14] = second compound 1 µM, first compound 0.01 µM
[15] = second compound 1 µM, first compound 0.0316 µM
[16] = second compound 1 µM, first compound 0.1 µM
[17] = second compound 3.16 µM, first compound 0.00316 µM
[18] = second compound 3.16 µM, first compound 0.01 µM
[19] = second compound 3.16 µM, first compound 0.0316 µM
[20] = second compound 3.16 µM, first compound 0.1 µM
[21] = second compound 10 µM, first compound 0.00316 µM
[22] = second compound 10 µM, first compound 0.01 µM
[23] = second compound 10 µM, first compound 0.0316 µM
[24] = second compound 10 µM, first compound 0.1 µM
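Note: spheroids exposed to agents for seven days before readout.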
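Throughout, for viability, T/C: percent of vehicle DMSO control viability so 100% = untreated growth.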

**Q.** Which results are given for `CCN1CCN(Cc2ccc(Nc3ncc(F)c(-c4cc(F)c5nc(C)n(C(C)C)c5c4)n3)nc2)CC1` + CC(Nc1ncnc2nc[nH]c12)c1cc2cccc(Cl)c2c(=O)n1-c1ccccc1?
**A.** IC50 (second compound 0.0316 µM): > 1000 nM; IC50 (second compound 0.1 µM): > 1000 nM; IC50 (second compound 0.316 µM): > 1000 nM; IC50 (second compound 1 µM): > 1000 nM; IC50 (second compound 3.16 µM): > 1000 nM; IC50 (second compound 10 µM): > 1000 nM; viability, T/C [1]: 98.7%; viability, T/C [2]: 94.4%; viability, T/C [3]: 96.9%; viability, T/C [4]: 99%; viability, T/C (second compound 0.0316 µM, first compound 0.316 µM): 89.8%; viability, T/C (second compound 0.0316 µM, first compound 1 µM): 84.6%; viability, T/C [5]: 99.2%; viability, T/C [6]: 93.1%; viability, T/C [7]: 103%; viability, T/C [8]: 108%; viability, T/C (second compound 0.1 µM, first compound 0.316 µM): 95%; viability, T/C (second compound 0.1 µM, first compound 1 µM): 99.6%; viability, T/C [9]: 103%; viability, T/C [10]: 94.3%; viability, T/C [11]: 95.7%; viability, T/C [12]: 96.3%; viability, T/C (second compound 0.316 µM, first compound 0.316 µM): 96.6%; viability, T/C (second compound 0.316 µM, first compound 1 µM): 96.2%; viability, T/C [13]: 92.8%; viability, T/C [14]: 93.6%; viability, T/C [15]: 91.9%; viability, T/C [16]: 90.6%; viability, T/C (second compound 1 µM, first compound 0.316 µM): 89.2%; viability, T/C (second compound 1 µM, first compound 1 µM): 91.6%; viability, T/C [17]: 80%; viability, T/C [18]: 69.8%; viability, T/C [19]: 75.4%; viability, T/C [20]: 79%; viability, T/C (second compound 3.16 µM, first compound 0.316 µM): 78.9%; viability, T/C (second compound 3.16 µM, first compound 1 µM): 75%; viability, T/C [21]: 56%; viability, T/C [22]: 62.8%; viability, T/C [23]: 65%; viability, T/C [24]: 67.4%; viability, T/C (second compound 10 µM, first compound 0.316 µM): 69.8%; viability, T/C (second compound 10 µM, first compound 1 µM): 53.6%

**Q.** `Cn1ncnc1[C@H]1c2n[nH]c(=O)c3cc(F)cc(c23)N[C@@H]1c1ccc(F)cc1` + CC(Nc1ncnc2nc[nH]c12)c1cc2cccc(Cl)c2c(=O)n1-c1ccccc1 was tested. Which IC50 (second compound 0.0316 µM) did it give?
**A.** > 100 nM

**Q.** And the IC50 (second compound 0.1 µM)?
**A.** > 100 nM

**Q.** What about the IC50 (second compound 0.316 µM) of the same molecule?
**A.** > 100 nM

**Q.** What about the IC50 (second compound 1 µM) of the same molecule?
**A.** > 100 nM

**Q.** And the IC50 (second compound 3.16 µM)?
**A.** 90.3 nM

**Q.** And the IC50 (second compound 10 µM)?
**A.** 23.1 nM

**Q.** And the viability, T/C (second compound 0.0316 µM, first compound 0.000316 µM)?
**A.** 95.5%

**Q.** What about the viability, T/C (second compound 0.0316 µM, first compound 0.001 µM) of the same molecule?
**A.** 79.7%

**Q.** What about the viability, T/C [1] of the same molecule?
**A.** 94%

**Q.** What about the viability, T/C [2] of the same molecule?
**A.** 94.4%

**Q.** And the viability, T/C [3]?
**A.** 79.6%

**Q.** And the viability, T/C [4]?
**A.** 58.8%

**Q.** What about the viability, T/C (second compound 0.1 µM, first compound 0.000316 µM) of the same molecule?
**A.** 94.3%

**Q.** What about the viability, T/C (second compound 0.1 µM, first compound 0.001 µM) of the same molecule?
**A.** 82.6%

**Q.** What about the viability, T/C [5] of the same molecule?
**A.** 79.3%

**Q.** What about the viability, T/C [6] of the same molecule?
**A.** 87.6%

**Q.** And the viability, T/C [7]?
**A.** 79.1%

**Q.** And the viability, T/C [8]?
**A.** 51.9%

**Q.** What about the viability, T/C (second compound 0.316 µM, first compound 0.000316 µM) of the same molecule?
**A.** 97.5%

**Q.** And the viability, T/C (second compound 0.316 µM, first compound 0.001 µM)?
**A.** 84%

**Q.** And the viability, T/C [9]?
**A.** 79.5%

**Q.** What about the viability, T/C [10] of the same molecule?
**A.** 80%

**Q.** And the viability, T/C [11]?
**A.** 76.9%

**Q.** And the viability, T/C [12]?
**A.** 57.8%

**Q.** What about the viability, T/C (second compound 1 µM, first compound 0.000316 µM) of the same molecule?
**A.** 84.8%

**Q.** And the viability, T/C (second compound 1 µM, first compound 0.001 µM)?
**A.** 97.9%

**Q.** And the viability, T/C [13]?
**A.** 77.4%

**Q.** And the viability, T/C [14]?
**A.** 81.5%

**Q.** And the viability, T/C [15]?
**A.** 68.3%

**Q.** What about the viability, T/C [16] of the same molecule?
**A.** 57.9%

**Q.** And the viability, T/C (second compound 3.16 µM, first compound 0.000316 µM)?
**A.** 71.5%

**Q.** What about the viability, T/C (second compound 3.16 µM, first compound 0.001 µM) of the same molecule?
**A.** 85.4%

**Q.** And the viability, T/C [17]?
**A.** 82.8%

**Q.** And the viability, T/C [18]?
**A.** 64.3%

**Q.** And the viability, T/C [19]?
**A.** 64.7%

**Q.** What about the viability, T/C [20] of the same molecule?
**A.** 48.2%

**Q.** And the viability, T/C (second compound 10 µM, first compound 0.000316 µM)?
**A.** 55.1%

**Q.** And the viability, T/C (second compound 10 µM, first compound 0.001 µM)?
**A.** 59.4%

**Q.** And the viability, T/C [21]?
**A.** 58.8%

**Q.** What about the viability, T/C [22] of the same molecule?
**A.** 63.4%

**Q.** What about the viability, T/C [23] of the same molecule?
**A.** 46.5%

**Q.** What about the viability, T/C [24] of the same molecule?
**A.** 31.2%
